# Experimental data: PubChem BioAssay AID1963860 (Molecular Pharmacology Branch, DTP, NCI, 2024)
# Tested on: CN0375-F725-PDC KRAS spheroid viability
# Test: Anticancer human tumor CN0375-F725-PDC patient-derived colon carcinoma cell line growth inhibition [KRAS2]
# Settings: spheroids with HUVEC and MSC; for IC50: curve of first compound; for viability, T/C: stronger effect = lower value
# Outline: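 KRAS-mutant tumor cells were grown as spheroids with HUVEC endothelial cells and human MSCs as stroma. Targeted agents were tested alone and with KRAS pathway inhibitors. Doses started at or near clinical Cmax, or 10 microM, descending half-log.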
# [1] = second compound 0.1 µM, first compound 0.0316 µM
# [2] = second compound 0.1 µM, first compound 0.1 µM
# [3] = second compound 0.1 µM, first compound 0.316 µM
# [4] = second compound 0.1 µM, first compound 1 µM
# [5] = second compound 0.1 µM, first compound 3.16 µM
# [6] = second compound 0.316 µM, first compound 0.0316 µM
# [7] = second compound 0.316 µM, first compound 0.1 µM
# [8] = second compound 0.316 µM, first compound 0.316 µM
# [9] = second compound 0.316 µM, first compound 1 µM
# [10] = second compound 0.316 µM, first compound 3.16 µM
# [11] = second compound 1 µM, first compound 0.0316 µM
# [12] = second compound 1 µM, first compound 0.1 µM
# [13] = second compound 1 µM, first compound 0.316 µM
# [14] = second compound 1 µM, first compound 1 µM
# [15] = second compound 1 µM, first compound 3.16 µM
# [16] = second compound 3.16 µM, first compound 0.0316 µM
# [17] = second compound 3.16 µM, first compound 0.1 µM
# [18] = second compound 3.16 µM, first compound 0.316 µM
# [19] = second compound 3.16 µM, first compound 1 µM
# [20] = second compound 3.16 µM, first compound 3.16 µM
# [21] = second compound 0.0316 µM, first compound 0.01 µM
# [22] = second compound 0.0316 µM, first compound 0.0316 µM
# [23] = second compound 0.0316 µM, first compound 0.1 µM
# [24] = second compound 0.1 µM, first compound 0.01 µM
# [25] = second compound 0.316 µM, first compound 0.01 µM
# [26] = second compound 1 µM, first compound 0.01 µM
# [27] = second compound 3.16 µM, first compound 0.01 µM
# 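Further: spheroids exposed to agents for 7 days.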
smiles,measurement,setting,value
CC1OCC2(CCN(c3cnc(Sc4ccnc(N)c4Cl)c(N)n3)CC2)C1N (stereo not given) + C=CC(=O)N1CCN(c2nc(=O)n(-c3c(C)ccnc3C(C)C)c3nc(-c4c(O)cccc4F)c(F)cc23)C(C)C1,IC50,second compound 0.1 µM,> 10 µM
same,IC50,second compound 0.316 µM,> 10 µM
same,IC50,second compound 1 µM,> 10 µM
same,IC50,second compound 3.16 µM,> 10 µM
same,IC50,second compound 10 µM,> 10 µM
same,"viability, T/C",[1],102%
same,"viability, T/C",[2],86.4%
same,"viability, T/C",[3],82.5%
same,"viability, T/C",[4],79.1%
same,"viability, T/C",[5],77.2%
same,"viability, T/C","second compound 0.1 µM, first compound 10 µM",63.6%
same,"viability, T/C",[6],98.8%
same,"viability, T/C",[7],85.5%
same,"viability, T/C",[8],78.3%
same,"viability, T/C",[9],79.9%
same,"viability, T/C",[10],77.5%
same,"viability, T/C","second compound 0.316 µM, first compound 10 µM",59.8%
same,"viability, T/C",[11],96.3%
same,"viability, T/C",[12],99.3%
same,"viability, T/C",[13],86.3%
same,"viability, T/C",[14],82.9%
same,"viability, T/C",[15],75.2%
same,"viability, T/C","second compound 1 µM, first compound 10 µM",65.6%
same,"viability, T/C",[16],104%
same,"viability, T/C",[17],92.4%
same,"viability, T/C",[18],81.4%
same,"viability, T/C",[19],81%
same,"viability, T/C",[20],71.6%
same,"viability, T/C","second compound 3.16 µM, first compound 10 µM",65.6%
same,"viability, T/C","second compound 10 µM, first compound 0.0316 µM",94%
same,"viability, T/C","second compound 10 µM, first compound 0.1 µM",92.2%
same,"viability, T/C","second compound 10 µM, first compound 0.316 µM",77.9%
same,"viability, T/C","second compound 10 µM, first compound 1 µM",66.3%
same,"viability, T/C","second compound 10 µM, first compound 3.16 µM",61.8%
same,"viability, T/C","second compound 10 µM, first compound 10 µM",49.6%
CC(=O)OC12COC1CC(O)C1(C)C(=O)C(O)C3=C(C)C(OC(=O)C(O)C(NC(=O)OC(C)(C)C)c4ccccc4)CC(O)(C(OC(=O)c4ccccc4)C21)C3(C)C (stereo not given) + C=CC(=O)N1CCN(c2nc(OCC3CCCN3C)nc3c2CCN(c2cccc4cccc(C)c24)C3)CC1CC#N,IC50,second compound 0.0316 µM,> 3.16 µM
same,IC50,second compound 0.1 µM,> 3.16 µM
same,IC50,second compound 0.316 µM,> 3.16 µM
same,IC50,second compound 1 µM,> 3.16 µM
same,IC50,second compound 3.16 µM,> 3.16 µM
same,"viability, T/C",[21],99.3%
same,"viability, T/C",[22],99.2%
same,"viability, T/C",[23],87.2%
same,"viability, T/C","second compound 0.0316 µM, first compound 0.316 µM",82.5%
same,"viability, T/C","second compound 0.0316 µM, first compound 1 µM",81.8%
same,"viability, T/C","second compound 0.0316 µM, first compound 3.16 µM",79.2%
same,"viability, T/C",[24],104%
same,"viability, T/C",[1],102%
same,"viability, T/C",[2],86.3%
same,"viability, T/C",[3],87%
same,"viability, T/C",[4],79.5%
same,"viability, T/C",[5],76.4%
same,"viability, T/C",[25],100%
same,"viability, T/C",[6],100%
same,"viability, T/C",[7],87.3%
same,"viability, T/C",[8],85.2%
same,"viability, T/C",[9],79.3%
same,"viability, T/C",[10],75.9%
same,"viability, T/C",[26],96.7%
same,"viability, T/C",[11],91.8%
same,"viability, T/C",[12],91.6%
same,"viability, T/C",[13],78.8%
same,"viability, T/C",[14],78.6%
same,"viability, T/C",[15],73.6%
same,"viability, T/C",[27],96.2%
same,"viability, T/C",[16],98.9%
same,"viability, T/C",[17],93.7%
same,"viability, T/C",[18],83.5%
same,"viability, T/C",[19],88.3%
same,"viability, T/C",[20],79%
CN(C)C/C=C/C(=O)Nc1cc2c(Nc3ccc(F)c(Cl)c3)ncnc2cc1O[C@H]1CCOC1 + C=CC(=O)N1CCN(c2nc(OCC3CCCN3C)nc3c2CCN(c2cccc4cccc(C)c24)C3)CC1CC#N,IC50,second compound 0.0316 µM,> 0.1 µM
same,IC50,second compound 0.1 µM,> 0.1 µM
same,IC50,second compound 0.316 µM,> 0.1 µM
same,IC50,second compound 1 µM,> 0.1 µM
same,IC50,second compound 3.16 µM,< 0.000316 µM
same,"viability, T/C","second compound 0.0316 µM, first compound 0.000316 µM",107%
same,"viability, T/C","second compound 0.0316 µM, first compound 0.001 µM",94.9%
same,"viability, T/C","second compound 0.0316 µM, first compound 0.00316 µM",88.8%
same,"viability, T/C",[21],84.8%
same,"viability, T/C",[22],82.7%
same,"viability, T/C",[23],76.4%
same,"viability, T/C","second compound 0.1 µM, first compound 0.000316 µM",105%
same,"viability, T/C","second compound 0.1 µM, first compound 0.001 µM",98.6%
same,"viability, T/C","second compound 0.1 µM, first compound 0.00316 µM",88%
same,"viability, T/C",[24],87.7%
same,"viability, T/C",[1],80%
same,"viability, T/C",[2],77.5%
same,"viability, T/C","second compound 0.316 µM, first compound 0.000316 µM",102%
same,"viability, T/C","second compound 0.316 µM, first compound 0.001 µM",101%
same,"viability, T/C","second compound 0.316 µM, first compound 0.00316 µM",84.2%
same,"viability, T/C",[25],81.5%
same,"viability, T/C",[6],73.4%
same,"viability, T/C",[7],76.7%
same,"viability, T/C","second compound 1 µM, first compound 0.000316 µM",90.6%
same,"viability, T/C","second compound 1 µM, first compound 0.001 µM",96.7%
same,"viability, T/C","second compound 1 µM, first compound 0.00316 µM",83.4%
same,"viability, T/C",[26],75.9%
same,"viability, T/C",[11],75.6%
same,"viability, T/C",[12],74.1%
same,"viability, T/C","second compound 3.16 µM, first compound 0.000316 µM",30.9%
same,"viability, T/C","second compound 3.16 µM, first compound 0.001 µM",24.6%
same,"viability, T/C","second compound 3.16 µM, first compound 0.00316 µM",8.56%
same,"viability, T/C",[27],9.52%
same,"viability, T/C",[16],10.6%
same,"viability, T/C",[17],10.4%
